Experimental data published in ChEMBL document CHEMBL1201862, “PubChem BioAssay data set” (2004).
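Exposure lasted 48 hours, with cells grown in 96-well plates and compounds tested at five concentrations. GI50: concentration for 50% inhibition of growth.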 Activity calls are given as the source filed them. No stated cut-off is given here; in the data, active = GI50 up to about 1.1 µM and inactive = higher.

Key:
Test in all cases: growth of human tumour cells (NCI), 48 h
SK-MEL-28 = test system: SK-MEL-28
ACHN = test system: ACHN
RPMI-8226 = test system: RPMI-8226
HOP-92 = test system: HOP-92
K562 = test system: K562
NCI-H522 = test system: NCI-H522
SK-MEL-2 = test system: SK-MEL-2
Malme-3M = test system: Malme-3M
SR = test system: SR
TK-10 = test system: TK-10
HOP-62 = test system: HOP-62
MOLT-4 = test system: MOLT-4
SN12C = test system: SN12C
SW-620 = test system: SW-620
COLO 205 = test system: COLO 205
EKVX = test system: EKVX
OVCAR-3 = test system: OVCAR-3
PC-3 = test system: PC-3
MDA-MB-435 = test system: MDA-MB-435

Measured: GI50

Cc1nc2ccccc2c(=O)n1NC(=S)Nc1cccc(Cl)c1
inactive: SK-MEL-28 > 100 µM | ACHN > 100 µM | RPMI-8226 > 100 µM | HOP-92 > 100 µM | K562 > 100 µM | NCI-H522 33.7 µM | SK-MEL-2 > 100 µM | Malme-3M > 100 µM | SR 31.8 µM | TK-10 > 100 µM | HOP-62 > 100 µM | MOLT-4 > 100 µM | SN12C > 100 µM | SW-620 > 100 µM | COLO 205 > 100 µM

CC1=N/C(=C\c2c(O)ccc3ccccc23)C(=O)O1
inactive: SK-MEL-28 > 100 µM | ACHN > 100 µM | RPMI-8226 > 100 µM | HOP-92 > 100 µM | K562 > 100 µM | NCI-H522 > 100 µM | SK-MEL-2 > 100 µM | Malme-3M > 100 µM | HOP-62 > 100 µM | MOLT-4 > 100 µM | SN12C > 100 µM | SW-620 > 100 µM | EKVX > 100 µM | COLO 205 > 100 µM

[N-]=[N+]=NC1C2CC3CC(C2)CC1C3 (stereo not given)
inactive: SK-MEL-28 > 100 µM | ACHN > 100 µM | RPMI-8226 > 100 µM | HOP-92 > 100 µM | K562 > 100 µM | NCI-H522 > 100 µM | SK-MEL-2 > 100 µM | Malme-3M > 100 µM | SR > 100 µM | TK-10 > 100 µM | HOP-62 > 100 µM | MOLT-4 > 100 µM | SN12C > 100 µM | SW-620 > 100 µM | EKVX > 100 µM | COLO 205 > 100 µM | OVCAR-3 > 100 µM

COc1ccc(C(=O)C(c2ccc(OC)cc2)C2OC(=O)C(Cl)=C2Cl)cc1 (stereo not given)
inactive: SK-MEL-28 > 100 µM | ACHN > 100 µM | RPMI-8226 > 100 µM | HOP-92 > 100 µM | K562 > 100 µM | NCI-H522 > 100 µM | SK-MEL-2 > 100 µM | Malme-3M > 100 µM | SR > 100 µM | TK-10 > 100 µM | HOP-62 > 100 µM | MOLT-4 > 100 µM | SN12C > 100 µM | SW-620 > 100 µM | EKVX > 100 µM | OVCAR-3 > 100 µM

O/N=C/c1cc2c(cc1Br)OCO2
inactive: ACHN > 100 µM | RPMI-8226 > 100 µM | K562 > 100 µM | NCI-H522 > 100 µM | SK-MEL-2 > 100 µM | Malme-3M > 100 µM | SR > 100 µM | TK-10 > 100 µM | HOP-62 > 100 µM | MOLT-4 > 100 µM | SN12C > 100 µM | SW-620 > 100 µM | EKVX > 100 µM | COLO 205 > 100 µM | OVCAR-3 > 100 µM

OCC(O)C(OC1OC(CO)C(O)C(O)C1O)c1nn(-c2ccc(Cl)cc2)c2nc3cc(Cl)c(Cl)cc3nc12 (stereo not given)
inactive: SK-MEL-28 > 100 µM | ACHN > 100 µM | RPMI-8226 > 100 µM | K562 > 100 µM | NCI-H522 > 100 µM | Malme-3M > 100 µM | SR > 100 µM | TK-10 > 100 µM | HOP-62 > 100 µM | MOLT-4 > 100 µM | SN12C > 100 µM | EKVX > 100 µM | OVCAR-3 > 100 µM

[O-][n+]1c2cccc(O)c2[n+]([O-])c2cccc(O)c21
inactive: ACHN 14.2 µM | RPMI-8226 18.6 µM | HOP-92 22.7 µM | K562 39.2 µM | NCI-H522 20.4 µM | PC-3 53.1 µM | TK-10 23.4 µM | HOP-62 27.9 µM | MOLT-4 3.99 µM | MDA-MB-435 > 100 µM | SW-620 47.9 µM | EKVX 23.8 µM | COLO 205 52.8 µM | OVCAR-3 29.2 µM

Clc1ccc(OCCSCCCCCCCCCCSCCOc2ccc(Cl)cc2)cc1
inactive: SK-MEL-28 > 100 µM | ACHN > 100 µM | RPMI-8226 > 100 µM | HOP-92 > 100 µM | K562 > 100 µM | NCI-H522 > 100 µM | SK-MEL-2 > 100 µM | Malme-3M > 100 µM | TK-10 > 100 µM | HOP-62 > 100 µM | MOLT-4 > 100 µM | SN12C > 100 µM | SW-620 > 100 µM | EKVX > 100 µM | COLO 205 > 100 µM | OVCAR-3 > 100 µM

CN1CCCC2[C@@H]3CCC4=C(O)C(=O)CC[C@]4(C)C3CC[C@@]21C (stereo not given in full)
inactive: SK-MEL-28 > 100 µM | ACHN > 100 µM | RPMI-8226 > 100 µM | HOP-92 > 100 µM | K562 > 100 µM | NCI-H522 > 100 µM | SK-MEL-2 1.4 µM | Malme-3M > 100 µM | TK-10 > 100 µM | HOP-62 > 100 µM | MOLT-4 > 100 µM | SN12C > 100 µM | SW-620 > 100 µM | EKVX > 100 µM | COLO 205 > 100 µM | OVCAR-3 > 100 µM

COC(=O)C12C3C4C1C1C2C3C41C(=O)OC(C)(C)C (stereo not given)
inactive: SK-MEL-28 > 100 µM | ACHN > 100 µM | RPMI-8226 > 49.2 µM | HOP-92 > 100 µM | K562 > 70.1 µM | NCI-H522 > 100 µM | SK-MEL-2 > 100 µM | Malme-3M > 100 µM | SR 19.2 µM | TK-10 > 100 µM | HOP-62 > 100 µM | MOLT-4 > 100 µM | SN12C > 100 µM | SW-620 > 36.2 µM | EKVX > 100 µM | COLO 205 > 64 µM | OVCAR-3 > 100 µM

O=S(=O)(O)C1=C2Sc3ccccc3N=C2c2ccccc2C1
inactive: SK-MEL-28 17.3 µM | ACHN 12.5 µM | RPMI-8226 7.48 µM | HOP-92 10.3 µM | K562 10.5 µM | NCI-H522 16.7 µM | SK-MEL-2 14.6 µM | Malme-3M 15.8 µM | SR 3.14 µM | TK-10 18.4 µM | HOP-62 20.1 µM | MOLT-4 4.88 µM | SN12C 13.8 µM | SW-620 15.3 µM | EKVX 13.8 µM | COLO 205 16.5 µM | OVCAR-3 17.5 µM

c1ccc(C2[C@@H]3CCCc4ccccc4C3=NN2c2ccccc2)cc1 (stereo not given in full)
inactive: SK-MEL-28 > 100 µM | ACHN > 100 µM | RPMI-8226 40.7 µM | K562 32.7 µM | NCI-H522 35 µM | Malme-3M > 100 µM | SR 91.6 µM | TK-10 > 100 µM | HOP-62 > 100 µM | MOLT-4 48.6 µM | SN12C > 100 µM | SW-620 > 100 µM | EKVX 46.8 µM | COLO 205 > 100 µM | OVCAR-3 31.8 µM

Oc1cc(-c2ccccn2)nc2ccc(Cl)cc12
inactive: SK-MEL-28 34.8 µM | ACHN 58.6 µM | RPMI-8226 18.2 µM | HOP-92 > 100 µM | K562 12.8 µM | NCI-H522 7.35 µM | Malme-3M 21.7 µM | SR > 100 µM | TK-10 95.7 µM | HOP-62 40.3 µM | MOLT-4 53.7 µM | SN12C 48 µM | SW-620 19.8 µM | EKVX 44 µM | COLO 205 36.6 µM
